Marks after values point to notes of the source that are not given here.

This data set can be described thus: log P by HPLC on reversed-phase column (C 18), acidic range. It counts as physicochemical. As for the experimental part:
Temperature: 43° C. […] The log P values given in Table 3 were determined in accordance with EEC Directive 79/831 Annex V.A8 by HPLC (High Performance Liquid Chromatography) on a reversed-phase column (C 18). Temperature: 43° C. […] The log P values given in Tables 4 were determined in accordance with EEC Directive 79/831 Annex V.A8 by HPLC (High Performance Liquid Chromatography) on a reversed-phase column (C 18). Temperature: 43° C.

As to `Cc1nn(C)c(O)c1C(=O)c1ccc(Cl)c(CN2CCN(C)C2=O)c1Cl` [ID-51], the logP entry is “logP = 1.38^a)”.

For the molecule `CCn1nc(C)c(C(=O)c2ccc(Cl)c(CN3CCN(C)C3=O)c2Cl)c1O` [ID-52], the logP entry is “logP = 1.56^a)”.

Take `Cc1nn(C(C)(C)C)c(O)c1C(=O)c1ccc(Cl)c(CN2CCN(C)C2=O)c1Cl` [ID-53]: the logP entry is given as “logP = 2.79^a)”.

Consider `CCN1CCN(Cc2c(Cl)ccc(C(=O)c3cnn(C)c3O)c2Cl)C1=O` [ID-54], for which the logP entry was “logP = 1.62^a)”.

`CCN1CCN(Cc2c(Cl)ccc(C(=O)c3c(C)nn(C)c3O)c2Cl)C1=O` [ID-55]: the logP result is given as “logP = 1.57^a)”.

With `CCN1CCN(Cc2c(Cl)ccc(C(=O)c3cnn(CC)c3O)c2Cl)C1=O` [ID-56], the logP result was “logP = 1.88^a)”.

For the molecule `CCN1CCN(Cc2c(Cl)ccc(C(=O)c3c(C)nn(CC)c3O)c2Cl)C1=O` [ID-57], the logP result is recorded as “logP = 1.79^a)”.

Take `CCN1CCN(Cc2c(Cl)ccc(C(=O)c3c(C)nn(C(C)(C)C)c3O)c2Cl)C1=O` [ID-58]: the logP result is on record as “logP = 3.15^a)”.

On to `COC(=O)c1ccc(Cl)c(Cn2nc(SC)n(C)c2=O)c1Cl` [IV-3], for which the logP result is reported as “logP = 2.27^a)”.

Take `CCOc1nn(Cc2c(Cl)ccc(C(=O)OC)c2Cl)c(=O)n1C` [IV-4]: the logP entry is “logP = 2.38^a)”.

For the molecule `COC(=O)c1ccc(Cl)c(Cn2nc(C3CC3)n(C3CC3)c2=O)c1Cl` [IV-5], the logP entry is “logP = 2.55^a)”.

Take `COC(=O)c1ccc(Cl)c(Cn2nc(OC)n(C)c2=O)c1Cl` [IV-6]: the logP entry is “logP = 2.04^a)”.

Turning to `COC(=O)c1ccc(Cl)c(Cn2nc(OC(C)C)n(C)c2=O)c1Cl` [IV-7], the logP result was “logP = 2.73^a)”.

On to `COC(=O)c1ccc(Cl)c(Cn2nc(OCC(F)(F)F)n(C)c2=O)c1Cl` [IV-8], for which the logP entry was “logP = 2.72^a)”.

On to `COC(=O)c1ccc(Cl)c(Cn2nc(Br)n(C)c2=O)c1Cl` [IV-9], for which the logP result was “logP = 2.18^a)”.

As for `COC(=O)c1ccc(Cl)c(Cn2ncn(C)c2=O)c1Cl` [IV-10], the logP entry is listed as “logP = 1.55^a)”.

As to `COC(=O)c1ccc(Cl)c(Cn2nc(C3CC3)n(C)c2=O)c1Cl` [IV-11], the logP entry is “logP = 2.16^a)”.

Consider `COC(=O)c1ccc(Cl)c(Cn2nc(N(C)C)n(C)c2=O)c1Cl` [IV-12], for which the logP result is given as “logP = 2.11^a)”.

For the molecule `COC(=O)c1ccc(Cl)c(Cn2nc(C)n(C)c2=O)c1Cl` [IV-13], the logP result is reported as “logP = 1.65^a)”.

As for `COC(=O)c1ccc(Cl)c(Cn2nc3n(c2=O)CCCC3)c1Cl` [IV-14], the logP entry is on record as “logP = 1.86^a)”.

As for `COC(=O)c1ccc(Cl)c(Cn2nc(OC)n(C3CC3)c2=O)c1Cl` [IV-15], the logP entry was “logP = 2.36^a)”.

As for `CCOc1nn(Cc2c(Cl)ccc(C(=O)OC)c2Cl)c(=O)n1C1CC1` [IV-16], the logP result was “logP = 2.73^a)”.

As to `COC(=O)c1ccc(Cl)c(Cn2nc(OC(C)C)n(C3CC3)c2=O)c1Cl` [IV-17], the logP result is “logP = 3.08^a)”.

With `COC(=O)c1ccc(Cl)c(Cn2nc(OCC(F)(F)F)n(C3CC3)c2=O)c1Cl` [IV-18], the logP result is on record as “logP = 3.05^a)”.

As for `COC(=O)c1ccc(Cl)c(Cn2nc(SC)n(C3CC3)c2=O)c1Cl` [IV-19], the logP result is recorded as “logP = 2.70^a)”.

For `COC(=O)c1ccc(Cl)c(Cn2nc(C)n(C3CC3)c2=O)c1Cl` [IV-20], the logP result is listed as “logP = 1.97^a)”.

Regarding `COC(=O)c1ccc(Cl)c(Cn2nc(N(C)C)n(C3CC3)c2=O)c1Cl` [IV-21], the logP result is listed as “logP = 2.42^a)”.

On to `CCOn1c(CC)nn(Cc2c(Cl)ccc(C(=O)OC)c2Cl)c1=O` [IV-22], for which the logP entry was “logP = 2.58^a)”.

For `COC(=O)c1ccc(Cl)c(CN2CCN(C)C2=O)c1Cl` [IV-23], the logP result is listed as “logP = 1.98^a)”.

As to `COC(=O)c1ccc(Cl)c(CN2CCCN(C)C2=O)c1Cl` [IV-24], the logP entry is given as “logP = 2.07^a)”.

Take `COC(=O)c1ccc(Cl)c(CN2C(=O)c3ccccc3S2(=O)=O)c1Cl` [IV-25]: the logP result was “logP = 2.94^a)”.

For the molecule `CCOC(=O)c1ccc(S(C)(=O)=O)cc1CN1C(=O)CCC1=O` [IV-33], the logP entry is listed as “logP = 1.53^a)”.

Values taken from patent US7279444B2, “Substituted benzoylpyrazoles” (Bayer CropScience GmbH, priority 1999, dated 2007).
